Assay results reported in patent US6939864B1, “Animal feed compositions and methods of using the same” (Purdue Research Foundation, priority 2001, dated 2005).

Key:
[1] = test system: serum cortisol (CS), ACTH and tumor necrosis factor-alpha (TNF); assay: Porcine study: serum ACTH, cortisol and TNF, basal and after I.V. LPS challenge; type: in vivo, pigs; settings: I.V. LPS 150 ug/kg, day 14 postweaning
Description: The objective of this study was to evaluate the potential benefit of supplementing the neonatal pig with Vitamin C (VC) and/or Beta-glucan (BG). Thirty-two crossbred pigs were selected at birth and assigned to one of four dietary treatment groups (n=8/group). Beginning on the day of birth, pigs received their respective treatments via an oral gavage on a daily basis until weaning at 2 weeks of age. Dietary treatment groups included Control (Con; no VC or BG), VC (75 ppm), BG (0.312 g/kg body weight) and VC+BG (75 ppm and 0.312 g/kg body weight). After weaning, pigs were placed on a starter ration containing their respective dietary treatments and a Phase 1 diet specific for the University of Missouri Swine unit for a 2 week period. Body weights were recorded every 3 days to adjust dietary treatment doses. On day 14 postweaning, blood samples were collected at 30-min intervals for one hour followed by an I.V. injection of lipopolysaccharide (LPS; 150 ug/kg). LPS is part of bacterial cell walls that initiates the immune response. Blood samples were collected at 30-min intervals for an additional 3-hour period following the LPS challenge. Blood samples were analyzed for serum cortisol (CS), ACTH and tumor necrosis factor-alpha (TNF) which are indicators of acute stress response to challenge (LPS).

[2] = Calf study: body weight change and fecal scores; type: in vivo, calves; settings: mean ±SE
Protocol: Three days after they were born, calves were started on all milk, milk replacer. The calves were assigned randomly to one of four treatment groups control, β-glucan, Vitamin C, and β-glucan and Vitamin C. Each treatment is represented in a block (1 block has 4 calves and each room has 3 blocks). Initial weight and temperature were taken when calves were placed on study, then weekly for six more weeks.
Fecal scores, nasal and ocular discharges were recorded daily along with room temperature and humidity. Blood samples were taken every week for seven weeks; 10 ml heparinized tube for plasma to measure cortisol and ascorbic acid; 5 ml sodium citrate tube for hematocrits, granulocytes, lymphocytes and fibrinogen.
Calves were fed milk replacer equaling 10% of their body weight per day, which was given in two equal rations (morning and afternoon). Dry milk replacer was equal to 12.5% of amount fed. Calves on treatment […] were given β-glucan equaling 0.3125% of total intake. Calves on treatment 3 and 4 received 250 mg of Vitamin C twice a day.

Molecule	TNF response to the LPS challenge [1]	CS response to the LPS challenge ([1]; compared to Con group)	Mean BW change ([2]; dairy calves on milk replacer) [kg/wk]	mean fecal scores ([2]; scale of 1–4, 1=solid and 4=fluid)
O=C1O[C@H]([C@@H](O)CO)C(O)=C1O [VC, ascorbic acid]	more rapid decline in serum TNF	lower	–	–
ascorbyl-2-polyphosphonate [AA]	–	–	1.48±0.12	1.48±0.03
